Source: BindingDB's records for doi:10.1021/np500757w (University of California San Diego, 2015)

Biological target: Endoplasmic reticulum chaperone BiP (Homo sapiens, UniProt P11021)
Test: Inhibition of 2-deoxyglucose-induced GRP78 (unknown origin) expression transfected in human HT1080 cells by luciferase reporter gene assay

Chain of Endoplasmic reticulum chaperone BiP (P11021 whole entry): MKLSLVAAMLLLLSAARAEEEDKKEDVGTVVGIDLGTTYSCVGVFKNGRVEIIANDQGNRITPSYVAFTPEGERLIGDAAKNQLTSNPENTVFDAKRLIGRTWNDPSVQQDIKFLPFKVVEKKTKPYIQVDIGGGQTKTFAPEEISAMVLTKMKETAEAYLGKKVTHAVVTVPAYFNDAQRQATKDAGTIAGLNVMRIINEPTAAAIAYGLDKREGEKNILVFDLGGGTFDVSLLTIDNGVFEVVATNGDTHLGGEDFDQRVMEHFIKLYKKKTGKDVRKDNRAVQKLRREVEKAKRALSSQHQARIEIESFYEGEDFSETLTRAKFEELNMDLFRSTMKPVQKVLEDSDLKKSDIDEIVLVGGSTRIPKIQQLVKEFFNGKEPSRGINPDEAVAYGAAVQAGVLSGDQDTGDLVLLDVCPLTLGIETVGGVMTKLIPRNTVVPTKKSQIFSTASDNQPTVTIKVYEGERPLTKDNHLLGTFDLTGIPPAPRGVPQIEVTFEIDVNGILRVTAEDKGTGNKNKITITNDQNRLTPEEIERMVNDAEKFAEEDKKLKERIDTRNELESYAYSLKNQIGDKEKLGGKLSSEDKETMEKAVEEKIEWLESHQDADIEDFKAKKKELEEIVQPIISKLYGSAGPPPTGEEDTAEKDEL

CC/C1=C/[C@H](CO)C[C@@H](C)[C@H](O[C@H]2C[C@H](O)[C@H](O[C@@H]3O[C@@H](C)[C@H](O[C@H]4C[C@H](O)[C@H](O)[C@@H](C)O4)[C@@H](OC)[C@H]3O)[C@@H](C)O2)[C@H](C)CCC[C@]2(C)C=C(C)[C@H](C)C[C@]23OC(=O)C(=C3O)C(=O)[C@@]2(CC)[C@H]3[C@H](C=C(C)[C@@H]12)[C@@H](O)CC(=O)[C@@H]3C
IC50: 0.3 µM
